A word on the IC50: it is the concentration at which inhibition is half-maximal. A word on the inhibition: it is how much of the control response was suppressed. As a reminder, the melting point is the temperature, or range, at which the solid turns liquid.

Data set [1] deals with K+ channels in superior cervical ganglion (SCG) neurons. In words: Whole-cell voltage clamp, K+ current in SCG neurons. The format is cell-based, rat. In short, it runs like this:
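Percent inhibition of control amplitude at steady-state block is the read-out: peak inward Na+ current at 0 mV, sustained K+ current at +50 mV, 35 msec steps every 10 sec from −65 to −55 mV. Recordings used whole-cell clamp of trypsin-dissociated SCG neurons, pH 7.4 external and pipette solutions, compounds applied by local perfusion.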

The next data set concerns DBA/2 mice. The data set is described as follows: animal or person. Format: in vivo. Particulars: for responders at 10 mg/kg / responders at 30 mg/kg / responders at 100 mg/kg: Mus musculus, iv, read-out: Number of Mice Protected from Tonic Convulsions. As to the method: Audiogenic Seizure Model in DBA/2 Mice
In Vivo Biological Protocol
A compound of the present invention was dissolved in water using 10% (weight/volume) Emulphor (GAF Cop., Wayne N.J. surfactant. Substances were administered by intravenous injection the retro-orbital venous sinus. […] All the male mice, 3-4 weeks old were obtained from Jackson Laboratories Bar Harbour, Me. Immediately before anticonvulsant testing, mice were placed upon a wire mesh, 4 inches square suspended from a steel rod. The square was slowly inverted through 180 degree and mice observed for 30 seconds. Any mouse falling from the wire mesh was scored as ataxia.
Mice were placed into an enclosed acrylic plastic chamber (21 cm in height, approximately 30 cm diameter) with a high-frequency speaker (4 cm diameter) in the center of the top lid. An audio signal generator (Protek model B-810) was used to produce a continuous sinusoidal tone that was swept linearly in frequency between 8 kHz and 16 kHz once each 10 msec. The average sound pressure level (SPL) during stimulation was approximately 100 dB at the floor of the chamber. Mice were placed within the chamber and allowed to acclimatize for 1 minute. DBA/2 mice in the vehicle-treated group responded to the sound stimulus (applied until tonic extension occurred, or for a maximum of 60 sec) with a characteristic seizure sequence consisting of wild running followed by clonic seizures, and later by tonic extension, and finally by respiratory arrest and death in 80% or more of the mice. In vehicle-treated mice, the entire sequence of seizures to respiratory arrest lasts approximately 15-20 seconds.
The incidence of all the seizure phases in the drug-treated and vehicle-treated mice was recorded, and the occurrence of tonic seizures were used for calculating anticonvulsant ED50 values by probit analysis. Mice were used only once for testing at each time and dose point.

For data set [2], the target named is T1, N-type Ca2+ channels in IMR-32 cells (Homo sapiens, UniProt Q00975).
T1 construct: host or cells: IMR-32 cells, differentiated with dibutyryl cAMP and bromodeoxyuridine
T1 sequence (Q00975 whole entry): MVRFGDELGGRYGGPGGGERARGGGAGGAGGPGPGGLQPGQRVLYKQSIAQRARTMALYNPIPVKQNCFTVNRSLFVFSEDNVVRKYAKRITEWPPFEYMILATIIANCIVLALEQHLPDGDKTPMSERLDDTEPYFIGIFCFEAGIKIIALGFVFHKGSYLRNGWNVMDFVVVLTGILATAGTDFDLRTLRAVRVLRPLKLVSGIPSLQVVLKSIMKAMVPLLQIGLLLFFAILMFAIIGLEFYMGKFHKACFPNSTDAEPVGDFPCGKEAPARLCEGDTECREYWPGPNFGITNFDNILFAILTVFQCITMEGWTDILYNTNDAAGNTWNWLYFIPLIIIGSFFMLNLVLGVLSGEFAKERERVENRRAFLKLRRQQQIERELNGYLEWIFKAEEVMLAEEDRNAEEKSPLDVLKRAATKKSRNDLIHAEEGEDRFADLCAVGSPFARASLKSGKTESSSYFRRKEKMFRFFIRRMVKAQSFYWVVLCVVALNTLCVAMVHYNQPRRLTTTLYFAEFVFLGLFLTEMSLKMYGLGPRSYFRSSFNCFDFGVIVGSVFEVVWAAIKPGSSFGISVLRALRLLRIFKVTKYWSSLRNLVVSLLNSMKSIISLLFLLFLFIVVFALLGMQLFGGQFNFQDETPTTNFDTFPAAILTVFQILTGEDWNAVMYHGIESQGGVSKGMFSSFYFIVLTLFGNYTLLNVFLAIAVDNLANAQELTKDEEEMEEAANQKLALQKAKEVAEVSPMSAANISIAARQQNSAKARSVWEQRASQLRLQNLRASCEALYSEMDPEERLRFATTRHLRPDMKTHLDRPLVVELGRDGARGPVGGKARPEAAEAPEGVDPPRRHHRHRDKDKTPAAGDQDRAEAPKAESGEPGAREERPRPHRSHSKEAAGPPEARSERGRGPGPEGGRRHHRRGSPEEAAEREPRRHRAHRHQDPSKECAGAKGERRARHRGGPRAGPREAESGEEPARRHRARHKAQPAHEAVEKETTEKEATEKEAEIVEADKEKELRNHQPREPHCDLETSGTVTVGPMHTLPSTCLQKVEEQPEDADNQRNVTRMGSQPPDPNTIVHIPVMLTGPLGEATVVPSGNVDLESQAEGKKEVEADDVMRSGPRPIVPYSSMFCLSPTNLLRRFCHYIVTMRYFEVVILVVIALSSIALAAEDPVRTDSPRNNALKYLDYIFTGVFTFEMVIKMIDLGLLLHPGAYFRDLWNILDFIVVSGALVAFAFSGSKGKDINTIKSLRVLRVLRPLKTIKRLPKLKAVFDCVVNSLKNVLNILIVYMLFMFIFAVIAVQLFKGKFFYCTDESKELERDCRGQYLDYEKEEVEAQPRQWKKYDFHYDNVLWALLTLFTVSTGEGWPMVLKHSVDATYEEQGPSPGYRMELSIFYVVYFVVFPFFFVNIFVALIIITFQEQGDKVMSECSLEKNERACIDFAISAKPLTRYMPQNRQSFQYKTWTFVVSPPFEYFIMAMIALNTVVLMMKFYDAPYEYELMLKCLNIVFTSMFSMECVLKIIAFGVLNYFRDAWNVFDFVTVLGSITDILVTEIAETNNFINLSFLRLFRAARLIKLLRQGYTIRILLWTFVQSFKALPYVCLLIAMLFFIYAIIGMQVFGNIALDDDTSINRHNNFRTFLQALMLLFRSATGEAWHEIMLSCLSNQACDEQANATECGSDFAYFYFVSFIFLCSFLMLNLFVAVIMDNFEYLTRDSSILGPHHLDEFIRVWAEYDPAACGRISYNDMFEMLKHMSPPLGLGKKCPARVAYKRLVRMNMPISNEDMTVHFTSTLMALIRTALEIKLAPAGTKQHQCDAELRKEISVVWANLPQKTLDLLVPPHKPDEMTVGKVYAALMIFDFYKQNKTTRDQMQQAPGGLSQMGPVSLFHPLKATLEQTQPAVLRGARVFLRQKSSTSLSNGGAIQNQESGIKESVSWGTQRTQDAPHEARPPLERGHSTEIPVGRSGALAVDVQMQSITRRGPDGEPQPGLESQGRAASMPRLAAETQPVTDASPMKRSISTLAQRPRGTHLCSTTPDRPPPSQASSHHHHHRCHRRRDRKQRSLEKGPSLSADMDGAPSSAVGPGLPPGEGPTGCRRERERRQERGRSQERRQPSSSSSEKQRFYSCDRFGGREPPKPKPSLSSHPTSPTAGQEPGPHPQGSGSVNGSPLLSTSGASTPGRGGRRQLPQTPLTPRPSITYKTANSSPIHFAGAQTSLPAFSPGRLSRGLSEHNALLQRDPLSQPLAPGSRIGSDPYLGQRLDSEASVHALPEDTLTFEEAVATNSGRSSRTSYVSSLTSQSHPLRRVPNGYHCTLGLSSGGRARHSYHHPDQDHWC
T1 sequence (P54289 25-956 partner limits assumed): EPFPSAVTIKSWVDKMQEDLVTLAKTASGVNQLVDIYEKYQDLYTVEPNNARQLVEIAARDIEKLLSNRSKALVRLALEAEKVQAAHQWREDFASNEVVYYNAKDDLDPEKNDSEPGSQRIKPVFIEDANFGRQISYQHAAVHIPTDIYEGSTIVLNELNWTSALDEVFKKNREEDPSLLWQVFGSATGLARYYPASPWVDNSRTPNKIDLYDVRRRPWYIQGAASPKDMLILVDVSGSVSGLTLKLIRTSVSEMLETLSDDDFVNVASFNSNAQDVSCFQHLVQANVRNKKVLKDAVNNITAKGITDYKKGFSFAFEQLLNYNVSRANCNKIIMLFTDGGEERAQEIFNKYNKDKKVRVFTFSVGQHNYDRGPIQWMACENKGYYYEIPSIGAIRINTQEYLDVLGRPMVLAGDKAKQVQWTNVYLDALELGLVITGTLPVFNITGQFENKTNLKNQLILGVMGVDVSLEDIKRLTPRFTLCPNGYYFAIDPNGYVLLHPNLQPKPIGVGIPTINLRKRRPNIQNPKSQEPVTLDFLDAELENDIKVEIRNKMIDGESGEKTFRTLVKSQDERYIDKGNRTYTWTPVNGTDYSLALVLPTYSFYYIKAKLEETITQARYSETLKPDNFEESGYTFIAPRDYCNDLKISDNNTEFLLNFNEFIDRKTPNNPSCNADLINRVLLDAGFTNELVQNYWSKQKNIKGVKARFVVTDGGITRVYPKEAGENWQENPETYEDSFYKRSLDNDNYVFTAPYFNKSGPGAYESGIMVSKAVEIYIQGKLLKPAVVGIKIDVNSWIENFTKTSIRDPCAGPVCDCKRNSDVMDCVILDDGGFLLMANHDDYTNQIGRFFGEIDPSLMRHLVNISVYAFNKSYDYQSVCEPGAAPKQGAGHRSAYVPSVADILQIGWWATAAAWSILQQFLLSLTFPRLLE
T1 sequence (P54289 957-1103 partner limits assumed): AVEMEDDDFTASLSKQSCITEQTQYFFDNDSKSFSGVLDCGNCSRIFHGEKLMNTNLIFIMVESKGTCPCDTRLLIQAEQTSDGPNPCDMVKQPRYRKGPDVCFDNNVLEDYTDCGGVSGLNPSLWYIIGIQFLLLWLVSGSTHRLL
T1 sequence (P54284 whole entry partner): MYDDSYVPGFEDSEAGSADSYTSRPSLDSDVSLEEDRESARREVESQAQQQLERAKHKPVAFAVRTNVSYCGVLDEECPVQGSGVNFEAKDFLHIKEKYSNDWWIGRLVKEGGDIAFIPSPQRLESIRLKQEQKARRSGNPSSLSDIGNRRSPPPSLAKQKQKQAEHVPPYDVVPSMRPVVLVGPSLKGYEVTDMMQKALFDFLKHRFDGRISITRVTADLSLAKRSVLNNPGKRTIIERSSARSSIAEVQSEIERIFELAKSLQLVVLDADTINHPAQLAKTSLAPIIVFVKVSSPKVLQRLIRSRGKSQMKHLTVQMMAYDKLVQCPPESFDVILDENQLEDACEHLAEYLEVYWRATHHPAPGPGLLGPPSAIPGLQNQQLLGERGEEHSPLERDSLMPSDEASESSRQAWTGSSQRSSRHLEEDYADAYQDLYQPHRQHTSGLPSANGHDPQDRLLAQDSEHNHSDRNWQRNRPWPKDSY
In words: Inhibition of N-type calcium flux in IMR-32 cells (Indo-1 fluorescence, nitrendipine present). The format is cell-based. Particulars: for IC50: IMR-32 cells, 5 μM nitrendipine, K+ depolarization; for inhibition at 1 µM / inhibition at 10 µM: IMR-32. In short, it runs like this:
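With L-type flux blocked by 5 μM nitrendipine, N-type Ca2+ entry was read as the Indo-1 emission ratio (400/490 nm, excitation 350 nm) at 30° C after KCl depolarization.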

Read-outs that look alike come from different tables or passages of the source.

Regarding `CC(C)(C)OC(=O)[C@H](Cc1ccc(OCc2ccccc2)cc1)NC(=O)CNC(=O)N1CCCCCC1` (stereo in doubt) [Example 8, [S-(R*,R*)]-2-{2-[(Azepane-1-carbonyl)-amino]-acetylamino}-3-(4-benzyloxy-phenyl)-propionic acid tert-butyl ester], the “Inhibition of K+ Current, % Inhibition at 10 μM” value in data set [1] worked out at 72%. In addition, the “Number of Mice Protected from Tonic Convulsions” value in the data set on DBA/2 mice (30 mg/Kg iv, 15 min post treatment) is reported as 4/5. The “Inhibition of Calcium Flux in IMR-32 Cells % Inhibition at 1 μM” value in data set [2] (1 μM) was 29%. In addition, in data set [2] (10 μM), the “Inhibition of Calcium Flux in IMR-32 Cells % Inhibition at 10 μM” value is 86%. In addition, the IC50 in data set [2] amounted to 2400 nM.

Consider `CC(C)C[C@H](NC(=O)N1CCCCCC1)C(=O)N[C@@H](Cc1ccc(OCc2ccccc2)cc1)C(=O)OC(C)(C)C` [Example 1], for which the “Inhibition of K+ Current, % Inhibition at 10 μM” value in data set [1] stood at 31%. Further, the IC50 in data set [1] (read-out: Inhibition of K+ Current IC50) came to 24000 nM. Besides, in the data set on DBA/2 mice (0.25 h), the responders at 10 mg/kg turned out to be 0%, the responders at 30 mg/kg was 100% and the responders at 100 mg/kg was 100%. In addition, in the data set on DBA/2 mice (0.5 h), the responders at 100 mg/kg was 100%. Moreover, the responders at 10 mg/kg in the data set with DBA/2 mice (0.75 h) stood at 0%. Moreover, in the data set with DBA/2 mice (1 h), the responders at 100 mg/kg worked out at 0%. Further, in data set [2], the inhibition at 1 µM was determined as 71%, the inhibition at 10 µM came to 95% and the IC50 was 350 nM.

For the molecule `CC(C)(C)OC(=O)[C@H](Cc1ccc(OCc2ccccc2)cc1)NC(=O)[C@H](Cc1ccccc1)NC(=O)N1CCCCCC1` [Example 16], the “Inhibition of K+ Current, % Inhibition at 10 μM” value in data set [1] is 20%. In data set [2], the inhibition at 1 µM turned out to be 44%, the inhibition at 10 µM is 92% and the half-maximal inhibitory concentration (IC50) was 1100 nM.

Regarding `CC(C)C[C@H](NC(=O)N1CCCCCC1)C(=O)N[C@@H](Cc1ccc(OCc2ccccc2)cc1)C(N)=O` [Example 21, [S-(R*,R*)]-Azepane-1-carboxylic acid {1-[2-(4-benzyloxy-phenyl)-1-carbamoyl-ethylcarbamoyl]-3-methyl-butyl}-amide], the “Inhibition of K+ Current, % Inhibition at 10 μM” value in data set [1] was found to be 56%. Moreover, the responders at 30 mg/kg with DBA/2 mice (0.75 h) was found to be 0%. In data set [2], the inhibition at 1 µM turned out to be 26%, the inhibition at 10 µM amounted to 83% and the IC50 is 2700 nM.

For the molecule `CC(C)C[C@H](NC(=O)N1CCCCCC1)C(=O)N[C@@H](Cc1ccc(OCc2ccccn2)cc1)C(=O)OC(C)(C)C` [Example 25, [S-(R*,R*)]-2-{2-[(Azepane-1-carbonyl)-amino]-4-methyl-pentanoylamino}-3-[4-(pyridin-2-ylmethoxy)-phenyl]-propionic acid tert-butyl ester], in data set [1], the “Inhibition of K+ Current, % Inhibition at 10 μM” value is on record as 51%. Further, the responders at 30 mg/kg with DBA/2 mice (0.25 h) was 100%. In addition, in data set [2], the inhibition at 1 µM was found to be 32%, the inhibition at 10 µM is 82% and the IC50 was 2090 nM.

Turning to `CC(C)C[C@H](NC(=O)N1CCCCCC1)C(=O)N[C@@H](Cc1ccc(OCc2ccncc2)cc1)C(=O)OC(C)(C)C` [Example 26, [S-(R*,R*)]-2-{2-[(Azepane-1-carbonyl)-amino]-4-methyl-pentanoylamino}-3-[4-(pyridin-4-ylmethoxy)-phenyl]-propionic acid tert-butyl ester], the “Inhibition of K+ Current, % Inhibition at 10 μM” value in data set [1] turned out to be 41%. Moreover, the responders at 10 mg/kg in the data set with DBA/2 mice (0.25 h) was 100%. Also, in data set [2], the inhibition at 1 µM came out at 44%, the inhibition at 10 µM stood at 84% and the IC50 is 1600 nM.

Take `CC(C)C[C@H](NC(=O)N1CCCCCC1)C(=O)N[C@@H](Cc1ccc(C#CC2(O)CCCCC2)cc1)C(=O)NC(C)(C)C` [Example 138, [S-(R*,R*)]-Azepane-1-carboxylic acid (1-({-tert-butylcarbamoyl-2-[4-(1-hydroxy-cyclohexylethynyl)-phenyl]-ethylcarbamoyl}-3-methyl-butyl)-amide]: the melting point was in the range of 120 to 122 °C. The “Inhibition of K+ Current, % Inhibition at 10 μM” value in data set [1] is 43%. For the same molecule, in data set [2], the inhibition at 1 µM turned out to be 23% and the inhibition at 10 µM is 67%.

With `CC(C)C[C@H](NC(=O)N1CCCCCC1)C(=O)N[C@@H](Cc1ccc(C=Cc2ccccc2)cc1)C(=O)NC(C)(C)C` [Example 141, [S-(R*,R*)]-Azepane-1-carboxylic acid {1-[1-tert-butylcarbamoyl-2-(4-styryl-phenyl)-ethylcarbamoyl]-3-methyl-butyl}-amide], the melting point was 95 to 96 °C. Also, the “Inhibition of K+ Current, % Inhibition at 10 μM” value in data set [1] was determined as 42%. In data set [2], the inhibition at 1 µM was determined as 37% and the inhibition at 10 µM was 66%.

With `CC(C)C[C@H](NC(=O)N1CCCCCC1)C(=O)N[C@@H](Cc1ccc(OCc2ccccc2)cc1)C(=O)NCCCn1ccnc1` [Example 237, [S-(R*,R*)]-Azepane-1-carboxylic acid {(1-[2-(4-benzyloxy phenyl)-1-(3-imidazol-1-yl-propylcarbamoyl)-ethylcarbamoyl]-3-methyl-butyl}-amide], the responders at 30 mg/kg in the data set with DBA/2 mice (0.25 h) was found to be 0%. For the same molecule, in data set [2], the inhibition at 1 µM is 52%, the inhibition at 10 µM came to 93% and the half-maximal inhibitory concentration (IC50) turned out to be 960 nM.

The record behind these values is patent publication US6423689B1, “Peptidyl calcium channel blockers” (Warner-Lambert Company, priority 1997, dated 2002).
